Consider 2 compounds from patent publication US20250127732A1 (AXSOME THERAPEUTICS, INC., priority 2018, published 2025).

Series [1] is described as follows: Part 3: randomized, double-blind, placebo-controlled multiple-dose trial of S- and R-bupropion with pharmacokinetic sampling (plasma concentrations Day 7). It is filed as in vivo. To be noted: human, 105 mg BID SR tablets oral, fasting, Day 7 at 3-4 hours after dosing, n = 15. As for the experimental part: A randomized, double-blind, multiple-dose, placebo-controlled, parallel group trial was conducted to examine the safety and tolerability of the pure S-and R-enantiomers of bupropion, with pharmacokinetic sampling.

A short description of series [2]: clinical. As to conditions: human, in vivo, po, 105 mg.
Text: Tablet dosing was escalated from once daily for Days 1 to 3, to twice daily thereafter with a final morning dose on Day 8.

For the compound `C[C@@H](NC(C)(C)C)C(=O)c1cccc(Cl)c1` [R-bupropion, (R)-bupropion, reference compound], the “Mean concentration of bupropion” value in series [1] worked out at 15.1 ng/mL.
In turn, `C[C@H](NC(C)(C)C)C(=O)c1cccc(Cl)c1` [S-bupropion, (S)-bupropion] came in with an AUC(0-t) at 12 h in series [2] of 793 ng·h/mL. Besides, in series [1], the “Mean concentration of bupropion” value is recorded as 170.9 ng/mL.

As usually defined, the AUC(0-t) is the area under the concentration-time curve up to a stated or last time point. A low value points to less exposure.
